In ChEMBL document CHEMBL3885881, “DrugMatrix”:

Species: Rattus norvegicus
Assay: DrugMatrix - Regimen: Daily Repeat
Format: toxicity, organism-based, Sprague-Dawley
Design: regimen Daily Repeat, gender Male, age 6-8 weeks
Conditions: in vivo, sc, 0 mg/kg, route mini-PUMP - SUBCUTANEOUS, dose level Control, vehicle 100 % SALINE; for ABSOLUTE BASOPHIL / ABSOLUTE EOSINOPHIL / ABSOLUTE LYMPHOCYTE / ABSOLUTE MONOCYTE / ABSOLUTE SEGMENTED NEUTROPHIL / BASOPHIL / EOSINOPHIL / ERYTHROCYTE COUNT / HEMATOCRIT / HEMOGLOBIN / LEUKOCYTE COUNT / LYMPHOCYTE / MEAN CORPUSCULAR HEMOGLOBIN / MEAN CORPUSCULAR HEMOGLOBIN CONCENTRATION / MEAN CORPUSCULAR VOLUME / MONOCYTE / NEUTROPHIL / NUCLEATED RED BLOOD CELLS / PLATELET COUNT: tissue Blood; for ALANINE AMINOTRANSFERASE / ALBUMIN / ALKALINE PHOSPHATASE / ASPARTATE AMINOTRANSFERASE / BLOOD UREA NITROGEN / CARBON DIOXIDE / CHLORIDE / CHOLESTEROL / CREATININE / GLUCOSE / LACTATE DEHYDROGENASE / LIPASE / PHOSPHORUS / POTASSIUM / SODIUM / TOTAL BILIRUBIN / TOTAL PROTEIN / URIC ACID: tissue Plasma

## C[C@]12CCC(=O)C=C1CC[C@@H]1[C@@H]2[C@@H](O)C[C@]2(C=O)[C@@H](C(=O)CO)CC[C@@H]12 [ALDOSTERONE]
72 h, time 3 day
  ABSOLUTE BASOPHIL: 0 CELLS/uL
  ABSOLUTE EOSINOPHIL: 77.17 CELLS/uL
  ABSOLUTE LYMPHOCYTE: 14293.83 CELLS/uL
  ABSOLUTE MONOCYTE: 354 CELLS/uL
  ABSOLUTE SEGMENTED NEUTROPHIL: 1658.33 CELLS/uL
  BASOPHIL: 0%
  EOSINOPHIL: 0.5%
  ERYTHROCYTE COUNT: 6.27 x10E6/uL
  HEMATOCRIT: 36.95%
  HEMOGLOBIN: 13.4 G/DL
  LEUKOCYTE COUNT: 16.38 x10E3/uL
  LYMPHOCYTE: 87.17%
  MEAN CORPUSCULAR HEMOGLOBIN: 21.42 pg
  MEAN CORPUSCULAR HEMOGLOBIN CONCENTRATION: 36.27 G/DL
  MEAN CORPUSCULAR VOLUME: 59.03 fL
  MONOCYTE: 2%
  NEUTROPHIL: 10.33%
  NUCLEATED RED BLOOD CELLS: 0 /100WBC
  PLATELET COUNT: 904.67 x10E3/uL
  ALANINE AMINOTRANSFERASE: 48.33 u/L
  ALBUMIN: 3.82 G/DL
  ALKALINE PHOSPHATASE: 282.33 u/L
  ASPARTATE AMINOTRANSFERASE: 86.83 u/L
  BLOOD UREA NITROGEN: 20.17 mg/dL
  CARBON DIOXIDE: 34.67 mmol/L
  CHLORIDE: 102 MEQ/L
  CHOLESTEROL: 71.5 mg/dL
  CREATININE: 0.2 mg/dL
  GLUCOSE: 136.83 mg/dL
  LACTATE DEHYDROGENASE: 159 u/L
  LIPASE: 9 u/L
  PHOSPHORUS: 10.12 mg/dL
  POTASSIUM: 5.92 MEQ/L
  SODIUM: 147.8 MEQ/L
  TOTAL BILIRUBIN: 0.2 mg/dL
  TOTAL PROTEIN: 6.05 G/DL
  URIC ACID: 1.4 mg/dL
120 h, time 5 day
  ABSOLUTE BASOPHIL: 0 CELLS/uL
  ABSOLUTE EOSINOPHIL: 0 CELLS/uL
  ABSOLUTE LYMPHOCYTE: 14257.33 CELLS/uL
  ABSOLUTE MONOCYTE: 326 CELLS/uL
  ABSOLUTE SEGMENTED NEUTROPHIL: 3216.67 CELLS/uL
  BASOPHIL: 0%
  EOSINOPHIL: 0%
  ERYTHROCYTE COUNT: 6.11 x10E6/uL
  HEMATOCRIT: 36.22%
  HEMOGLOBIN: 13.18 G/DL
  LEUKOCYTE COUNT: 17.8 x10E3/uL
  LYMPHOCYTE: 80.5%
  MEAN CORPUSCULAR HEMOGLOBIN: 21.62 pg
  MEAN CORPUSCULAR HEMOGLOBIN CONCENTRATION: 36.42 G/DL
  MEAN CORPUSCULAR VOLUME: 59.37 fL
  MONOCYTE: 1.83%
  NEUTROPHIL: 17.67%
  NUCLEATED RED BLOOD CELLS: 0 /100WBC
  PLATELET COUNT: 1311 x10E3/uL
  ALANINE AMINOTRANSFERASE: 47 u/L
  ALBUMIN: 3.83 G/DL
  ALKALINE PHOSPHATASE: 260.33 u/L
  ASPARTATE AMINOTRANSFERASE: 76.17 u/L
  BLOOD UREA NITROGEN: 14.67 mg/dL
  CARBON DIOXIDE: 31.33 mmol/L
  CHLORIDE: 101.17 MEQ/L
  CHOLESTEROL: 75 mg/dL
  CREATININE: 0.16 mg/dL
  GLUCOSE: 152.67 mg/dL
  LACTATE DEHYDROGENASE: 147.33 u/L
  LIPASE: 9.33 u/L
  PHOSPHORUS: 10.97 mg/dL
  POTASSIUM: 6 MEQ/L
  SODIUM: 145.52 MEQ/L
  TOTAL BILIRUBIN: 0.17 mg/dL
  TOTAL PROTEIN: 5.83 G/DL
  URIC ACID: 1.27 mg/dL
[…], time 14 day
  ABSOLUTE BASOPHIL: 0 CELLS/uL
  ABSOLUTE EOSINOPHIL: 64.5 CELLS/uL
  ABSOLUTE LYMPHOCYTE: 12507.83 CELLS/uL
  ABSOLUTE MONOCYTE: 380.33 CELLS/uL
  ABSOLUTE SEGMENTED NEUTROPHIL: 2414 CELLS/uL
  BASOPHIL: 0%
  EOSINOPHIL: 0.5%
  ERYTHROCYTE COUNT: 6.1 x10E6/uL
  HEMATOCRIT: 35.4%
  HEMOGLOBIN: 12.88 G/DL
  LEUKOCYTE COUNT: 15.37 x10E3/uL
  LYMPHOCYTE: 80.83%
  MEAN CORPUSCULAR HEMOGLOBIN: 21.18 pg
  MEAN CORPUSCULAR HEMOGLOBIN CONCENTRATION: 36.43 G/DL
  MEAN CORPUSCULAR VOLUME: 58.17 fL
  MONOCYTE: 2.17%
  NEUTROPHIL: 16.5%
  NUCLEATED RED BLOOD CELLS: 0.17 /100WBC
  PLATELET COUNT: 1016 x10E3/uL
  ALANINE AMINOTRANSFERASE: 53.33 u/L
  ALBUMIN: 3.93 G/DL
  ALKALINE PHOSPHATASE: 319.83 u/L
  ASPARTATE AMINOTRANSFERASE: 84 u/L
  BLOOD UREA NITROGEN: 15.5 mg/dL
  CARBON DIOXIDE: 34 mmol/L
  CHLORIDE: 101.83 MEQ/L
  CHOLESTEROL: 57 mg/dL
  CREATININE: 0.21 mg/dL
  GLUCOSE: 182.33 mg/dL
  LACTATE DEHYDROGENASE: 104.67 u/L
  LIPASE: 9.17 u/L
  PHOSPHORUS: 11.12 mg/dL
  POTASSIUM: 5.81 MEQ/L
  SODIUM: 144.85 MEQ/L
  TOTAL BILIRUBIN: 0.18 mg/dL
  TOTAL PROTEIN: 5.92 G/DL
  URIC ACID: 1.38 mg/dL
